As usually defined, the pIC50 is the negative decadic logarithm of the IC50, by convention in mol/L. Broadly, the half-life is how long it takes for the measured level to halve. A low value points to rapid decline.

pIC50: −log10 of the molar value.

Here are results for four compounds from ChEMBL document CHEMBL4665787, “Bifunctional and Unusual Amino Acid β- or γ-Ester Prodrugs of Nucleoside Analogues for Improved Affinity to ATB and Enhanced Metabolic Stability: An Application to Floxuridine” (J Med Chem, 2020).

Data set [1] addresses T1, Sodium- and chloride-dependent neutral and basic amino acid transporter B(0+) (Homo sapiens, UniProt Q9UN76).
T1 sequence (Q9UN76 whole entry): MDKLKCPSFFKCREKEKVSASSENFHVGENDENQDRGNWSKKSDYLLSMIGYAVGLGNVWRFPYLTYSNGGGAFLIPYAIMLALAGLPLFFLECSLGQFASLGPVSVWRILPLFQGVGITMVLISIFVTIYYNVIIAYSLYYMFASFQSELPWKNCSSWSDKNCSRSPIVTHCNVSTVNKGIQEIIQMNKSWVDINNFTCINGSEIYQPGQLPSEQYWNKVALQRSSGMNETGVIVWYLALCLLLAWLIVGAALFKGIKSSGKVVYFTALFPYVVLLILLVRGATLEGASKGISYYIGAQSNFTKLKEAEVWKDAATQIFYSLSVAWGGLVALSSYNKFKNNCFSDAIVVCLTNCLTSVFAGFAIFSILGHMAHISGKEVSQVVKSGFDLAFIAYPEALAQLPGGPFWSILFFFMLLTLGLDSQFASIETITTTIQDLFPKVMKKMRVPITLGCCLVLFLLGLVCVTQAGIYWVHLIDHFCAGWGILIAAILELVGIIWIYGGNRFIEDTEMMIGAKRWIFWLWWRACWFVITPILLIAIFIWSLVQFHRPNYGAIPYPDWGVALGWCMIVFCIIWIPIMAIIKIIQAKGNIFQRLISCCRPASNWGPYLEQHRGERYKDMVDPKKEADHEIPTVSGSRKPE
The experiment in a line: Substrate activity at SLC6A14 (unknown origin) expressed in Xenopus laevis oocytes assessed as inhibition of glycine uptake incubated for 10 mins by HPLC/MS/MS analysis. Format: cell-based, Oocyte.

The target of data set [2] is T1, Sodium- and chloride-dependent neutral and basic amino acid transporter B(0+). The experiment in a line: Substrate activity at SLC6A14 (unknown origin) expressed in Xenopus laevis oocytes assessed as ABT0+ mediated drug uptake at 0.5 mM incubated for 10 mins by HPLC analysis. Particulars: oocyte, 500 µM. The class given is ADME, cell-based.
Data set [3] can be described thus: Half life in rat plasma at 200 uM measured up to 120 mins by HPLC-MS/MS analysis. Format: ADME, cell-free.
Data set [4] is described as follows: Selectivity ratio of substrate activity at PEPT1 (unknown origin) expressed in MDCK cells assessed as PEPT1 mediated drug uptake to drug uptake in MDCK cells.
The nature of data set [5]: Half life of compound in PBS buffer at pH 7.4 at 200 uM by HPLC analysis. The class given is physicochemical.
A short description of data set [6]: Half life of compound in human ZR-75-1 cell homogenate. Format: ADME, tissue-based.
Data set [7] has as its target T2, Solute carrier family 15 member 1 (Homo sapiens, UniProt P46059).
T2 sequence (P46059 whole entry): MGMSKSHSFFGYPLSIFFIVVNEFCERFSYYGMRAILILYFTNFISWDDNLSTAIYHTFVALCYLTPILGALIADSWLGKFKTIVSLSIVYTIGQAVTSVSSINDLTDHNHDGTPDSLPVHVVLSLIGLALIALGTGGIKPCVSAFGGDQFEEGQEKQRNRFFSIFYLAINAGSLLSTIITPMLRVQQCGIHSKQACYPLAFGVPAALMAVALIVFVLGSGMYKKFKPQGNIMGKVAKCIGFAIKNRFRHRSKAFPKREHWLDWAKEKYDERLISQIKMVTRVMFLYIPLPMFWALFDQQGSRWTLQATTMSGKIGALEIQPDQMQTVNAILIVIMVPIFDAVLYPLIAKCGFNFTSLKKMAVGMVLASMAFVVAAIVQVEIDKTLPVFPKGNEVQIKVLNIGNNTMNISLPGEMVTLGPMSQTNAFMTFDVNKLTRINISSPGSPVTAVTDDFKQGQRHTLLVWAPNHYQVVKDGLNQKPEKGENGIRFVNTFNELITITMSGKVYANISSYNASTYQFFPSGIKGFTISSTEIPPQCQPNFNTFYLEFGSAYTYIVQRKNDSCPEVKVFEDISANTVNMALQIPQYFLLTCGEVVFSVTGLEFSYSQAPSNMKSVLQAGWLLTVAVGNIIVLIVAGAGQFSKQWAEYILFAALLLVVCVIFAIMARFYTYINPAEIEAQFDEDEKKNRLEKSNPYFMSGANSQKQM
Kind of data set: Substrate activity at PEPT1 (unknown origin) expressed in MDCK cells assessed as PEPT1 mediated drug uptake at 0.5 mM incubated for 10 mins by HPLC analysis. Format: ADME, cell-based. Particulars: 500 µM.

The nature of data set [8]: Selectivity ratio of substrate activity at SLC6A14 (unknown origin) expressed in Xenopus laevis oocytes assessed as ABT0+ mediated drug uptake to drug uptake in Xenopus laevis oocytes. Details: species or system Oocyte.
Data set [9] can be described thus: Half life of compound in human MIA PaCa-2 cell homogenate. Format: ADME, tissue-based.
The nature of data set [10]: Half life of compound in human MDA-MB-231 cell homogenate. The class given is ADME, tissue-based.
The nature of data set [11]: Drug uptake in Xenopus laevis oocytes at 0.5 mM incubated for 10 mins by HPLC analysis. The class given is ADME, cell-based. Particulars: oocyte, 500 µM.
The next data set deals with ZR-75-1. Kind of data set: Potency index, ratio of FUdR GI50 to test compound GI50 for growth inhibition of human ZR-75-1 cells. Format: functional.
Another data set deals with MDA-MB-231. Kind of data set: Potency index, ratio of FUdR GI50 to test compound GI50 for growth inhibition of human MDA-MB-231 cells. The class given is functional.
The next data set concerns thymidine phosphorylase. Kind of data set: Half life of compound in thymidine phosphorylase buffer at 300 uM by HPLC analysis. The class given is physicochemical.
The next data set concerns MIA PaCa-2. Kind of data set: Potency index, ratio of FUdR GI50 to test compound GI50 for growth inhibition of human MIA-PaCa-2 cells. The class given is functional.
Data set [12] in a line: Drug uptake in MDCK cells incubated for 10 mins by HPLC analysis. Format: ADME, cell-based, Canis lupus familiaris. To be noted: dog, 500 µM, dose 0.5 mM.
Data set [13] concerns the target T2, Solute carrier family 15 member 1. The experiment in a line: Substrate activity at PEPT1 (unknown origin) expressed in MDCK cells assessed as inhibition of gly-sar uptake incubated for 10 mins by HPLC/MS/MS analysis. The class given is cell-based.

Turning to `N[C@@H](CCC(=O)OC[C@H]1O[C@@H](n2cc(F)c(=O)[nH]c2=O)C[C@@H]1OC(=O)CC[C@H](N)C(=O)O)C(=O)O`, the pIC50 in data set [1] was 2.58. The Drug uptake in [2] is 0.78 nmol/mg/min; in [7], under 0.04 nmol/mg/min; in data set [11], 0.32 nmol/mg/min; in data set [12], under 0.04 nmol/mg/min. Besides, the half-life at 200 µM in data set [3] stood at 67.9 min; in data set [5] it was 109 min. Further, the figures for the Ratio in [4] and in data set [8] were 1 and 2.44, respectively. The half-life in data set [6] was 14.3 min; in data set [9] it was 17.5 min; in data set [10] it was 21.1 min. The RatioGI50 in the data set with ZR-75-1, with MDA-MB-231 and in the data set with MIA PaCa-2 was 7 in each case. The compound further returned a half-life at 300 µM with thymidine phosphorylase of 235 min.

For `CC(C)[C@H](N)C(=O)OC[C@H]1O[C@@H](n2cc(F)c(=O)[nH]c2=O)C[C@@H]1OC(=O)[C@@H](N)C(C)C`, the pIC50 in [1] is 2.70; in data set [13], 2.65. In addition, the Drug uptake in data set [2] worked out at 1.03 nmol/mg/min; in [7] it was 1.11 nmol/mg/min; in [11], 0.37 nmol/mg/min; in data set [12], 0.44 nmol/mg/min. Further, the half-life at 200 µM in [3] amounted to 37.8 min; in data set [5] it was 106 min. Further, the Ratio worked out at 2.63 in [4] and 2.78 in [8]. For the same compound, the half-life in data set [6] came to 6.7 min; in data set [9] it was 8.4 min; in data set [10], 10.1 min. The RatioGI50 with ZR-75-1, in the data set with MDA-MB-231 and in the data set on MIA PaCa-2 was 7 throughout. This compound also registered a half-life at 300 µM with thymidine phosphorylase of 257 min.

`N[C@@H](CC(=O)O[C@H]1C[C@H](n2cc(F)c(=O)[nH]c2=O)O[C@@H]1CO)C(=O)O`: the results for the pIC50 in [1] and in data set [13] were 2.80 and 1.86, respectively. Moreover, the Drug uptake in data set [2] was 1.89 nmol/mg/min; in data set [7], under 0.04 nmol/mg/min; in data set [11] it was 0.36 nmol/mg/min; in data set [12] it was under 0.04 nmol/mg/min. For the same compound, the half-life at 200 µM in data set [3] came to 124 min; in data set [5], 179 min. For the same compound, the Ratio was 1 in data set [4] and 5.25 in data set [8]. The half-life in data set [6] amounted to 24.2 min; in [9] it was 32.1 min; in data set [10], 19.3 min. Besides, the RatioGI50 in the data set with ZR-75-1, with MDA-MB-231 and in the data set on MIA PaCa-2 was 7 in each case. For the same compound, in the data set with thymidine phosphorylase, the half-life at 300 µM is 278 min.

Take `N[C@@H](CC(=O)OC[C@H]1O[C@@H](n2cc(F)c(=O)[nH]c2=O)C[C@@H]1OC(=O)C[C@H](N)C(=O)O)C(=O)O`: the pIC50 in data set [1] is 2.53. Moreover, the Drug uptake in data set [2] was 1.12 nmol/mg/min; in data set [7], under 0.04 nmol/mg/min; in [11], 0.34 nmol/mg/min; in [12], under 0.04 nmol/mg/min. Also, the figures for the half-life at 200 µM in data set [3] and in data set [5] were 56.1 min and 98.2 min, respectively. In addition, the Ratio in [4] is on record as 1; in data set [8], 3.29. Besides, the half-life was found to be 16.2 min in data set [6], 11.3 min in data set [9] and 9.3 min in data set [10]. Besides, the RatioGI50 in the data set with ZR-75-1, in the data set with MDA-MB-231 and in the data set on MIA PaCa-2 was 7 each time. For the same compound, the half-life at 300 µM in the data set with thymidine phosphorylase was 301 min.
